One experiment has as its system human PMN leukocytes. In words: PMN migration (chemotaxis chamber, FMLP). It is filed as cell-based. To be noted: 2 ug/ml, mean ± SD. The protocol:
Microalgal polysaccharide materials were tested for their ability to influence the migration of polymorphonucelar (PMN) leukocytes in response to chemotractant substances. Leukocyte migration is essential for leukocyte accumulation at sites of inflammation. During the inflammatory response, leukocytes migrate towards the source of a chemotractant substance in a process called chemotaxis. In vitro methods to study chemotaxis often use a membrane based approach, where a chemoattractant is placed on one side of a membrane and PMN leukocytes are placed on the other. Chemotaxis is then measured by quantifying the number of leukocytes which then migrate through the filter towards the chemotractant substance.
For this study, human PMN leukocytes were isolated via density centrifugation from freshly drawn blood. The PMN cells were loaded with a Calcein AM, a fluorescent dye. […] The chemotaxis chamber was be incubated and at the end of the incubation period the fluorescence of the bottom wells was read and used as an index of PMN migration. […]
Heparinized whole blood (20-30 ml) was collected from a healthy human donor, layered over a density gradient (Histopaque 1077 and Histopaque 1119) and centrifuged at 400 g for 30 min. […] After the incubation, the PMN cells were washed twice with PBS, counted and resuspended in RPMI-FCS at 1-5×10^6 cells/ml. […]

Another experiment has as its system elastase. Kind of experiment: Anti-elastase assay (fibroblast lysate, STANA substrate). Format: biochemical, human. To be noted: 100 μM. The protocol: Human dermal fibroblasts were cultured and used as a source of the elastase enzyme. This enzyme was be partially purified from the fibroblasts by lysing the cells in an elastase buffer and retaining the soluble portion of the lysate. Portions of this fibroblast lysate were then be incubated with test materials a synthetic elastase substrate, Suc-(Ala3)-p-Nitroaniline (STANA). Elastase acts upon this substrate to release p-nitroaniline, which is detected with a spectrophotometer by measuring the absorbance at a wavelength of 405 nm. An inhibition of the elastase enzyme is identified by a decrease in the amount of released p-nitroaniline when compared to uninhibited enzyme.
Test material BM was supplied as a powder. 100 mg of BM was combined with either 5 ml of ethanol or 5 ml of ultrapure water in 15 ml centrifuge tubes. […]
After measuring the protein concentration of the lysate, a small sample was obtained and the elastase activity of the lysate was determined at 100%, 50% and 25% concentrations using 2× elastase buffer to make the dilutions. […] After the incubation the well plate was read at 405 nm using a microplate reader. The mean absorbance for each concentration of the lysate was plotted versus its respective concentration. […]

Results on 2 compounds are retold here after patent US10231907B2, “Compositions for improving the health and appearance of skin” (Algenist Holdings, Inc., priority 2006, dated 2019).

As for `C[C@@H]1[C@H](O)[C@@H](C)/C=C/C=C/C=C/C=C/C=C/C=C/C=C/[C@H](O[C@@H]2O[C@H](C)[C@@H](O)[C@H](N)[C@@H]2O)C[C@@H]2O[C@](O)(C[C@@H](O)C[C@@H](O)[C@H](O)CC[C@@H](O)C[C@@H](O)CC(=O)O[C@H]1C)C[C@H](O)[C@H]2C(=O)O` [Amphotericin B], the “Percent of Maximal Migration” value in the experiment with human PMN leukocytes was 9.4 ± 0.6%.
Regarding `CC(C)C[C@H](NP(=O)(O)O[C@@H]1O[C@@H](C)[C@H](O)[C@@H](O)[C@H]1O)C(=O)N[C@@H](Cc1c[nH]c2ccccc12)C(=O)O` [Phosphoramidon], the “Percent Inhibition” value in the experiment with elastase worked out at 94%.
